ChEMBL document CHEMBL1151116, “In vitro study of the anticholinergic and antihistaminic activities of protopine and some derivatives” (J Nat Prod, 1988)

What was measured:
[1] = test system: Ileum; assay: Inhibition of acetylcholine-induced contraction in guinea pig ileum at 0.28 to 2.8 uM preincubated for 5 mins before acetylcholine challenge; assay type: functional, Cavia porcellus; parameters: scale not given: the % may be the effect or the level left
[2] = test system: Ileum; assay: Inhibition of acetylcholine-induced contraction in guinea pig ileum preincubated for 5 mins before acetylcholine challenge; assay type: functional, tissue-based, Cavia porcellus

`C[N+]1([O-])CCc2cc3c(cc2C(=O)Cc2ccc4c(c2C1)OCO4)OCO3` (stereo not drawn) showed an Activity [1] of 20%.
In the case of `COc1ccc(Cc2nccc3cc(OC)c(OC)cc23)cc1OC` [PAPAVERINE], the pD2 [2] is reported as 5.08.
`CN1[C@@H]2CC[C@H]1C[C@@H](OC(=O)C(CO)c1ccccc1)C2` (stereo partly drawn) [ATROPINE] gave a Kb ([2]; Cavia porcellus, Ileum, read-out: pA2 (converted)) of 2.04 nM.
